# Data from patent US9513294B2, “Megastokes amino-triazolyl-BODIPY compounds and applications to live neuron staining and human serum albumin FA1 drug site probing” (National University of Singapore, priority 2012, dated 2016).
# Assay: Absorbance and fluorescence emission spectra (SpectraMax M2)
# Format: physicochemical
# Conditions: MK library, Table 5
# Outline: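 Absorbance and emission maxima measured on a SpectraMax M2 spectrophotometer, which also gave quantum yield data; analysis in GraphPrism.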
Compound,λmax Absorp. [nm],λmax Emission [nm]
CN(Cc1ccccc1)C1=[N+]2C(=C(c3ccc(N)cc3)c3ccc(-n4cc(CC5CCCCC5)nn4)n3[B-]2(F)F)C=C1 [MK195-8],476,579
CN(Cc1ccccc1)Cc1cn(-c2ccc3n2[B-](F)(F)[N+]2=C(N(C)Cc4ccccc4)C=CC2=C3c2ccc(N)cc2)nn1 [MK195-18],475,580
CN(Cc1ccccc1)C1=[N+]2C(=C(c3ccc(N)cc3)c3ccc(-n4cc(CCc5ccccc5)nn4)n3[B-]2(F)F)C=C1 [MK195-19],477,582
CC(C)Cc1cn(-c2ccc3n2[B-](F)(F)[N+]2=C(N(C)Cc4ccccc4)C=CC2=C3c2ccc(N)cc2)nn1 [MK195-43],475,571
CCCc1cn(-c2ccc3n2[B-](F)(F)[N+]2=C(N(C)Cc4ccccc4)C=CC2=C3c2ccc(N)cc2)nn1 [MK195-48],476,584
CCCCCC(O)c1cn(-c2ccc3n2[B-](F)(F)[N+]2=C(N(C)Cc4ccccc4)C=CC2=C3c2ccc(N)cc2)nn1 (stereo not drawn) [MK195-69],476,591
CN(Cc1ccccc1)C1=[N+]2C(=C(c3ccc(N)cc3)c3ccc(-n4cc(CO)nn4)n3[B-]2(F)F)C=C1 [MK195-70],475,592
CCCC(C)c1cn(-c2ccc3n2[B-](F)(F)[N+]2=C(N4CCCC4)C=CC2=C3c2ccc(N)cc2)nn1 (stereo not drawn) [MK215-3],471,567
Nc1ccc(C2=C3C=CC(N4CCCC4)=[N+]3[B-](F)(F)n3c2ccc3-n2cc(C3CC3)nn2)cc1 [MK215-4],470,576
Nc1ccc(C2=C3C=CC(N4CCCC4)=[N+]3[B-](F)(F)n3c2ccc3-n2cc(C3CCCC3)nn2)cc1 [MK215-5],471,568
Nc1ccc(C2=C3C=CC(N4CCCC4)=[N+]3[B-](F)(F)n3c2ccc3-n2cc(CC3CCCCC3)nn2)cc1 [MK215-8],470,574
CN(Cc1ccccc1)Cc1cn(-c2ccc3n2[B-](F)(F)[N+]2=C(N4CCCC4)C=CC2=C3c2ccc(N)cc2)nn1 [MK215-18],471,583
Nc1ccc(C2=C3C=CC(N4CCCC4)=[N+]3[B-](F)(F)n3c2ccc3-n2cc(CCc3ccccc3)nn2)cc1 [MK215-19],471,578
CC(C)Cc1cn(-c2ccc3n2[B-](F)(F)[N+]2=C(N4CCCC4)C=CC2=C3c2ccc(N)cc2)nn1 [MK215-43],471,571
CCCc1cn(-c2ccc3n2[B-](F)(F)[N+]2=C(N4CCCC4)C=CC2=C3c2ccc(N)cc2)nn1 [MK215-48],470,575
CCCCCC(O)c1cn(-c2ccc3n2[B-](F)(F)[N+]2=C(N4CCCC4)C=CC2=C3c2ccc(N)cc2)nn1 (stereo not drawn) [MK215-69],470,580
Nc1ccc(C2=C3C=CC(N4CCCC4)=[N+]3[B-](F)(F)n3c2ccc3-n2cc(CO)nn2)cc1 [MK215-70],471,595
CCCC(C)c1cn(-c2ccc3n2[B-](F)(F)[N+]2=C(NCc4cc(F)cc(F)c4)C=CC2=C3c2ccc(N)cc2)nn1 (stereo not drawn) [MK412-3],476,562
Nc1ccc(C2=C3C=CC(NCc4cc(F)cc(F)c4)=[N+]3[B-](F)(F)n3c2ccc3-n2cc(C3CC3)nn2)cc1 [MK412-4],475,562
Nc1ccc(C2=C3C=CC(NCc4cc(F)cc(F)c4)=[N+]3[B-](F)(F)n3c2ccc3-n2cc(C3CCCC3)nn2)cc1 [MK412-5],476,567
Nc1ccc(C2=C3C=CC(NCc4cc(F)cc(F)c4)=[N+]3[B-](F)(F)n3c2ccc3-n2cc(CC3CCCCC3)nn2)cc1 [MK412-8],476,563
CN(Cc1ccccc1)Cc1cn(-c2ccc3n2[B-](F)(F)[N+]2=C(NCc4cc(F)cc(F)c4)C=CC2=C3c2ccc(N)cc2)nn1 [MK412-18],473,563

# Assay: Quantum yield measurements versus Acridine Yellow in EtOH
# Format: physicochemical
# Conditions: MK library, Table 5; excitation 460 nm
# Outline: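 Fluorescence quantum yield is relative to Acridine Yellow in EtOH (Φ 0.47), with excitation at 460 nm. Integrated emission at 510–700 nm was corrected for absorbance at the excitation wavelength and for solvent refractive index.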
row,Compound,φ (quantum yield) [%]
1,CN(Cc1ccccc1)C1=[N+]2C(=C(c3ccc(N)cc3)c3ccc(-n4cc(CC5CCCCC5)nn4)n3[B-]2(F)F)C=C1 [MK195-8],0.36
2,CN(Cc1ccccc1)Cc1cn(-c2ccc3n2[B-](F)(F)[N+]2=C(N(C)Cc4ccccc4)C=CC2=C3c2ccc(N)cc2)nn1 [MK195-18],0.52
3,CN(Cc1ccccc1)C1=[N+]2C(=C(c3ccc(N)cc3)c3ccc(-n4cc(CCc5ccccc5)nn4)n3[B-]2(F)F)C=C1 [MK195-19],0.27
4,CC(C)Cc1cn(-c2ccc3n2[B-](F)(F)[N+]2=C(N(C)Cc4ccccc4)C=CC2=C3c2ccc(N)cc2)nn1 [MK195-43],0.41
5,CCCc1cn(-c2ccc3n2[B-](F)(F)[N+]2=C(N(C)Cc4ccccc4)C=CC2=C3c2ccc(N)cc2)nn1 [MK195-48],0.32
6,CCCCCC(O)c1cn(-c2ccc3n2[B-](F)(F)[N+]2=C(N(C)Cc4ccccc4)C=CC2=C3c2ccc(N)cc2)nn1 (stereo not drawn) [MK195-69],0.28
7,CN(Cc1ccccc1)C1=[N+]2C(=C(c3ccc(N)cc3)c3ccc(-n4cc(CO)nn4)n3[B-]2(F)F)C=C1 [MK195-70],0.27
8,CCCC(C)c1cn(-c2ccc3n2[B-](F)(F)[N+]2=C(N4CCCC4)C=CC2=C3c2ccc(N)cc2)nn1 (stereo not drawn) [MK215-3],0.26
9,Nc1ccc(C2=C3C=CC(N4CCCC4)=[N+]3[B-](F)(F)n3c2ccc3-n2cc(C3CC3)nn2)cc1 [MK215-4],0.29
10,Nc1ccc(C2=C3C=CC(N4CCCC4)=[N+]3[B-](F)(F)n3c2ccc3-n2cc(C3CCCC3)nn2)cc1 [MK215-5],0.53
11,Nc1ccc(C2=C3C=CC(N4CCCC4)=[N+]3[B-](F)(F)n3c2ccc3-n2cc(CC3CCCCC3)nn2)cc1 [MK215-8],0.56
12,CN(Cc1ccccc1)Cc1cn(-c2ccc3n2[B-](F)(F)[N+]2=C(N4CCCC4)C=CC2=C3c2ccc(N)cc2)nn1 [MK215-18],0.24
13,Nc1ccc(C2=C3C=CC(N4CCCC4)=[N+]3[B-](F)(F)n3c2ccc3-n2cc(CCc3ccccc3)nn2)cc1 [MK215-19],0.22
14,CC(C)Cc1cn(-c2ccc3n2[B-](F)(F)[N+]2=C(N4CCCC4)C=CC2=C3c2ccc(N)cc2)nn1 [MK215-43],0.33
15,CCCc1cn(-c2ccc3n2[B-](F)(F)[N+]2=C(N4CCCC4)C=CC2=C3c2ccc(N)cc2)nn1 [MK215-48],0.29
16,CCCCCC(O)c1cn(-c2ccc3n2[B-](F)(F)[N+]2=C(N4CCCC4)C=CC2=C3c2ccc(N)cc2)nn1 (stereo not drawn) [MK215-69],0.33
17,Nc1ccc(C2=C3C=CC(N4CCCC4)=[N+]3[B-](F)(F)n3c2ccc3-n2cc(CO)nn2)cc1 [MK215-70],0.22
18,CCCC(C)c1cn(-c2ccc3n2[B-](F)(F)[N+]2=C(NCc4cc(F)cc(F)c4)C=CC2=C3c2ccc(N)cc2)nn1 (stereo not drawn) [MK412-3],0.63
19,Nc1ccc(C2=C3C=CC(NCc4cc(F)cc(F)c4)=[N+]3[B-](F)(F)n3c2ccc3-n2cc(C3CC3)nn2)cc1 [MK412-4],0.67
20,Nc1ccc(C2=C3C=CC(NCc4cc(F)cc(F)c4)=[N+]3[B-](F)(F)n3c2ccc3-n2cc(C3CCCC3)nn2)cc1 [MK412-5],0.68
21,Nc1ccc(C2=C3C=CC(NCc4cc(F)cc(F)c4)=[N+]3[B-](F)(F)n3c2ccc3-n2cc(CC3CCCCC3)nn2)cc1 [MK412-8],0.56
22,CN(Cc1ccccc1)Cc1cn(-c2ccc3n2[B-](F)(F)[N+]2=C(NCc4cc(F)cc(F)c4)C=CC2=C3c2ccc(N)cc2)nn1 [MK412-18],1.02
